pIC50: −log10 of the molar value. The source made the active and inactive calls. The calls are words filed in the database; no cut-off is given here.
What was measured:
Trypsin [1] = target: T1, Trypsin (Homo sapiens, UniProt P07477+P07478+P35030); test: Inhibition of trypsin-induced elevation in PAI1 production in HUVEC by ELISA; format: cell-based
Trypsin [2] = target: T1, Trypsin; test: Inhibition of trypsin-induced reduction in tPA production in HUVEC by ELISA; format: cell-based
[3] = Inhibition of trypsin by protease assay system

Structure (SMILES) | IC50 (Trypsin [1]) | Activity (Trypsin [2]) | pIC50 [3] | Activity (Trypsin [1])
COc1c(O[C@@H]2O[C@H](C(=O)O)[C@@H](O)[C@H](O)[C@H]2O)cc(O)c2c(=O)cc(-c3ccccc3)oc12 | > 1000 µM | inactive | – | –
O=C1C[C@@H](c2c(O)cccc2O)Oc2cc(O)cc(O)c21 | > 1000 µM | inactive | – | –
COc1c(O)ccc(O)c1-c1cc(=O)c2c(O)cc(O)c(OC)c2o1 | 88 µM | inactive | – | –
O=c1cc(-c2ccccc2)oc2cc(O)c(O)c(O)c12 [BAICALEIN] | 3.7 µM | Dose-dependent effect | 6.30 | Dose-dependent effect
O=C(O)[C@H]1O[C@@H](Oc2cc3oc(-c4ccccc4)cc(=O)c3c(O)c2O)[C@H](O)[C@@H](O)[C@@H]1O [BAICALIN] | > 1000 µM | inactive | – | –
COc1c(O)cc2oc(-c3ccccc3)cc(=O)c2c1O [OROXYLIN A] | 61 µM | inactive | – | –
COc1cccc(O)c1-c1cc(=O)c2c(O)c(OC)c(OC)c(OC)c2o1 [SKULLCAPFLAVONE II] | 110 µM | inactive | – | –
COc1c(O)cc(O)c2c(=O)cc(-c3ccccc3)oc12 [WOGONIN] | 105 µM | inactive | – | –
